Legend:
[1] = Proton relaxivity analysis (variable field T1-T2 analyzer); type: physicochemical; conditions: Table IV; field strength varied from 1-64 MHz
Procedure: Relaxivity analysis was performed using a variable field T1-T2 analyzer. The field strength was varied from 1-64 MHz.
The Gd(III) content of the solutions was determined on a sequential, radially viewed Varian™ Liberty Series II ICPOES inductively coupled plasma optical emission spectrophotometer (Anderson Analytical, TX). Relaxivity analysis was performed using a variable field T1-T2 analyzer (University of Pittsburgh). The field strength was varied from 1-64 MHz. […] Relaxivity values for DTPA-Gd(III)-encapsulated dendrimers were similar to free DTPA-Gd(III).

[2] = system: HEK 293 cells; experiment: Membrane permeation of FITC-conjugated PEHAM dendrimer (fluorescence microscopy); type: cell-based, human; conditions: monitored at 2, 5 and 24 hours, FIG. 13
Procedure: Fluorescence microscopy and phase contrast microscopy studies were performed using a Nikon Diaphot™ TMD microscope equipped with Nikon™ TMD-EF for fluorescence, along with a Nikon™ CoolPix 990 digital camera to capture the results.
HEK 293 cells were plated at 40% confluency in a 96-well plate (Becton Dickinson) in MEM (Fisher), containing 10% FBS (ISC BioExpress). […] Control wells included G=1 PEHAM dendrimer and FITC dye alone, at equivalent concentrations. The cells were incubated with the conjugate for 24 hours, with monitoring via fluorescence microscopy at 2, 5, and 24 hours. Prior to examination under the microscope, the cells to be analyzed were rinsed 2 times with PBS.

Relaxivity (r1) [1]	Compound	membrane permeation / intracellular fluorescence [2]
4.2 mM⁻¹ s⁻¹	O=C([O-])CN(CCN(CC(=O)[O-])CC(=O)O)CCN(CC(=O)[O-])CC(=O)O.[Gd+3] [DTPA-Gd, diethylenetriaminepentaacetic acid, gadolinium(III)]	–
–	fluorescein isothiocyanate [FITC]	no intracellular fluorescence

Reference: US7985424B2, “Dendritic polymers with enhanced amplification and interior functionality” (Dendritic Nanotechnologies Inc., priority 2004, dated 2011)
